For 16 molecules, T/C results are on record in PubChem BioAssay AID306 (DTP/NCI, 2004).

Each structure is given as a SMILES string. Several values for one entry are separate records, joined by “and”; a condition that tells them apart may be missing. Equal entries are not always repeated. Inconclusive results and toxic doses are left out.

The assay concerns BDF1 mice, L1210 Methyl-GAG-resistant leukemia, survival T/C. As to the kind of experiment: NCI In Vivo Anticancer Drug Screen. Data for tumor model L1210 Leukemia resistant to Methyl-GAG; NSC 32946 (subcutaneous) in B6D2F1 (BDF1) mice. To be noted: endpoint: mean survival time, higher = longer survival. How it is done:
The antitumor activity of compounds was measured in mice bearing transplantable tumors. Survival or tumor size were measured and the results are expressed as the measurement made in the treated group (T) divided by the measurement made in the vehicle treated control group (C). The tumor model used in this assay is L1210 Leukemia resistant to Methyl-GAG; NSC 32946 (subcutaneous) in B6D2F1 (BDF1) mice

Setting [1] is: dose: 16.0 mg/kg/injection, schedule: Q01DX Z (sc), vehicle: steriod suspending solution.
[2] abbreviates: dose: 32.0 mg/kg/injection, schedule: Q01DX Z (sc), vehicle: steriod suspending solution.
The mark [3] stands for this setting: dose: 62.5 mg/kg/injection, schedule: Q01DX Z (sc), vehicle: steriod suspending solution.
[4] abbreviates: dose: 125.0 mg/kg/injection, schedule: Q01DX Z (sc), vehicle: steriod suspending solution.
Where [5] appears, read: dose: 125.0 mg/kg/injection, schedule: Q01DX Z (ip), vehicle: saline.
Setting [6] is: dose: 250.0 mg/kg/injection, schedule: Q01DX Z (ip), vehicle: saline.
The mark [7] stands for this setting: dose: 500.0 mg/kg/injection, schedule: Q01DX Z (ip), vehicle: saline.
[8] abbreviates: dose: 25.0 mg/kg/injection, schedule: Q01DX Z (ip), vehicle: other.
Where [9] appears, read: dose: 100.0 mg/kg/injection, schedule: Q01DX Z (ip), vehicle: other.
Where [10] appears, read: dose: 400.0 mg/kg/injection, schedule: Q01DX Z (ip), vehicle: other.
The mark [11] stands for this setting: dose: 12.5 mg/kg/injection, schedule: Q01DX Z (ip), vehicle: carboxymethylcellulose (CMC).
[12] abbreviates: dose: 25.0 mg/kg/injection, schedule: Q01DX Z (ip), vehicle: carboxymethylcellulose (CMC).
[13] abbreviates: dose: 50.0 mg/kg/injection, schedule: Q01DX Z (ip), vehicle: carboxymethylcellulose (CMC).
Setting [14] is: dose: 100.0 mg/kg/injection, schedule: Q01DX Z (ip), vehicle: carboxymethylcellulose (CMC).
The mark [15] stands for this setting: dose: 62.5 mg/kg/injection, schedule: Q01DX Z (ip), vehicle: carboxymethylcellulose (CMC).
Setting [16] is: dose: 125.0 mg/kg/injection, schedule: Q01DX Z (ip), vehicle: carboxymethylcellulose (CMC).
Where [17] appears, read: dose: 250.0 mg/kg/injection, schedule: Q01DX Z (ip), vehicle: carboxymethylcellulose (CMC).
[18] abbreviates: dose: 500.0 mg/kg/injection, schedule: Q01DX Z (ip), vehicle: carboxymethylcellulose (CMC).
Setting [19] is: dose: 1000.0 mg/kg/injection, schedule: Q01DX Z (ip), vehicle: carboxymethylcellulose (CMC).

As to `CC[C@@H](c1ccc(O)cc1)[C@@H](CC)c1ccc(O)cc1`, the T/C under setting [1] is 96 % of control; the T/C under setting [2] was 96 % of control; the T/C under setting [3] is 100 % of control; the T/C under setting [4] is 100 % of control; the T/C (dose: 250.0 mg/kg/injection, schedule: Q01DX Z (sc), vehicle: steriod suspending solution) was 108 % of control; the T/C (dose: 500.0 mg/kg/injection, schedule: Q01DX Z (sc), vehicle: steriod suspending solution) was 98 % of control and 101 % of control. Further, under “dose: 1000.0 mg/kg/injection, schedule: Q01DX Z (sc), vehicle: steriod suspending solution”, the T/C is 95 % of control.

For `CCOC(N)=O`, the T/C under setting [5] is 99 % of control; the T/C under setting [6] was 89 % of control; the T/C under setting [7] is 101 % of control; the T/C (dose: 1000.0 mg/kg/injection, schedule: Q01DX Z (ip), vehicle: saline) is 90 % of control.

On to `CN(C)CC(=O)c1ccc(O)c(O)c1`, for which the T/C is 98 % of control (dose: 31.25 mg/kg/injection, schedule: Q01DX Z (ip), vehicle: saline); 96 % of control (dose: 62.5 mg/kg/injection, schedule: Q01DX Z (ip), vehicle: saline); 99 % of control under setting [5]; 99 % of control and 100 % of control under setting [6]; 97 % of control and 106 % of control under setting [7].

Turning to `Nc1nc2n[nH]nc2c(=O)[nH]1`, the T/C reads like this: under setting [8], 159 % of control; under setting [9], 162 % of control and 168 % of control; under setting [10], 177 % of control.

Turning to `Cn1c(N)nc2nc[nH]c2c1=S`, the T/C was 98 % of control (dose: 1.6 mg/kg/injection, schedule: Q01DX Z (ip), vehicle: carboxymethylcellulose (CMC)); 100 % of control and 104 % of control (dose: 3.1 mg/kg/injection, schedule: Q01DX Z (ip), vehicle: carboxymethylcellulose (CMC)); 97 % of control and 102 % of control (dose: 6.25 mg/kg/injection, schedule: Q01DX Z (ip), vehicle: carboxymethylcellulose (CMC)); 93 % of control and 98 % of control and 102 % of control under setting [11]; 102 % of control under setting [12]; 100 % of control and 111 % of control under setting [13]. For the same molecule, the T/C runs as follows: under setting [14], 101 % of control; (dose: 200.0 mg/kg/injection, schedule: Q01DX Z (ip), vehicle: carboxymethylcellulose (CMC)) 97 % of control.

For `O=CN(O)CC(=O)O`, the T/C by setting is: under setting [15], 108 % of control; under setting [16], 101 % of control; under setting [17], 101 % of control; under setting [18], 102 % of control and 110 % of control; under setting [19], 105 % of control.

Turning to `O=CCC(O)C(O)C(O)CO` (stereo not drawn), the T/C was 98 % of control under setting [15]; 103 % of control under setting [16]; 101 % of control under setting [17]; 119 % of control under setting [18]; 108 % of control under setting [19]; 90 % of control (dose: 2000.0 mg/kg/injection, schedule: Q01DX Z (ip), vehicle: carboxymethylcellulose (CMC)).

On to `Nc1nc(N)c2nc(CNc3ccc(C(=O)NC(CCC(=O)O)C(=O)O)cc3)cnc2n1` (stereo not drawn), for which the T/C is, setting by setting: (dose: 2.0 micrograms/kg/injection, schedule: Q01DX Z (ip), vehicle: alkali diluted with saline) 98 % of control; (dose: 4.0 micrograms/kg/injection, schedule: Q01DX Z (ip), vehicle: alkali diluted with saline) 100 % of control; (dose: 16.0 micrograms/kg/injection, schedule: Q01DX Z (ip), vehicle: alkali diluted with saline) 110 % of control; (dose: 31.0 micrograms/kg/injection, schedule: Q01DX Z (ip), vehicle: alkali diluted with saline) 88 % of control; (dose: 63.0 micrograms/kg/injection, schedule: Q01DX Z (ip), vehicle: alkali diluted with saline) 187 % of control; (dose: 125.0 micrograms/kg/injection, schedule: Q01DX Z (ip), vehicle: alkali diluted with saline) 94 % of control.

Take `N=C(N)c1ccc(Nc2ccc(C(=N)N)cc2)cc1`: the T/C is, setting by setting: (dose: 3.1 mg/kg/injection, schedule: Q01DX Z (ip), vehicle: methylcellulose (MC)) 98 % of control and 102 % of control; (dose: 6.25 mg/kg/injection, schedule: Q01DX Z (ip), vehicle: methylcellulose (MC)) 107 % of control; (dose: 6.3 mg/kg/injection, schedule: Q01DX Z (ip), vehicle: methylcellulose (MC)) 93 % of control; (dose: 12.5 mg/kg/injection, schedule: Q01DX Z (ip), vehicle: methylcellulose (MC)) 97 % of control.

Regarding `N#[N+]c1cnc([O-])[nH]c1=O`, the T/C is 88 % of control (dose: 5.0 mg/kg/injection, schedule: Q01DX Z (ip), vehicle: carboxymethylcellulose (CMC)) and 88 % of control (dose: 10.0 mg/kg/injection, schedule: Q01DX Z (ip), vehicle: carboxymethylcellulose (CMC)).

`Cc1n[nH]c(=O)[nH]c1=O`: the T/C was 100 % of control (dose: 0.8 mg/kg/injection, schedule: Q01DX Z (ip), vehicle: other); 102 % of control (dose: 1.6 mg/kg/injection, schedule: Q01DX Z (ip), vehicle: other); 98 % of control (dose: 3.1 mg/kg/injection, schedule: Q01DX Z (ip), vehicle: other); 120 % of control (dose: 6.25 mg/kg/injection, schedule: Q01DX Z (ip), vehicle: other); 100 % of control (dose: 6.3 mg/kg/injection, schedule: Q01DX Z (ip), vehicle: other); 101 % of control (dose: 12.5 mg/kg/injection, schedule: Q01DX Z (ip), vehicle: other). In addition, the T/C reads like this: under setting [8], 100 % of control; (dose: 50.0 mg/kg/injection, schedule: Q01DX Z (ip), vehicle: other) 95 % of control and 103 % of control; under setting [9], 91 % of control; (dose: 200.0 mg/kg/injection, schedule: Q01DX Z (ip), vehicle: other) 88 % of control; under setting [10], 89 % of control.

As for `CS(=O)(=O)OCCCl`, the T/C reads like this: under setting [11], 89 % of control; under setting [12], 96 % of control; under setting [13], 92 % of control; under setting [14], 113 % of control.

On to `CCOC(=O)NP(=O)(N1CC1(C)C)N1CC1(C)C` (stereo not drawn), for which the T/C was 95 % of control under setting [15], 95 % of control under setting [16], 97 % of control under setting [17] and 93 % of control under setting [18].

`C[C@]12CCC(=O)C=C1CC[C@@H]1[C@@H]2CC[C@@]2(C)[C@H]1CC[C@]2(C)O`: the T/C is 97 % of control under setting [1]; 105 % of control under setting [2]; 89 % of control under setting [3]; 97 % of control (dose: 63.0 mg/kg/injection, schedule: Q01DX Z (sc), vehicle: steriod suspending solution); 95 % of control and 101 % of control under setting [4].

Turning to `C[C@]12C=CC(=O)C=C1CC[C@@H]1[C@@H]2C(=O)C[C@@]2(C)[C@H]1CC[C@]2(O)C(=O)CO`, the T/C (dose: 25.0 mg/kg/injection, schedule: Q01DX Z (sc), vehicle: steriod suspending solution) is 91 % of control and 115 % of control; the T/C (dose: 50.0 mg/kg/injection, schedule: Q01DX Z (sc), vehicle: steriod suspending solution) is 103 % of control; the T/C (dose: 100.0 mg/kg/injection, schedule: Q01DX Z (sc), vehicle: steriod suspending solution) is 150 % of control; the T/C (dose: 200.0 mg/kg/injection, schedule: Q01DX Z (sc), vehicle: steriod suspending solution) was 115 % of control; the T/C (dose: 400.0 mg/kg/injection, schedule: Q01DX Z (sc), vehicle: steriod suspending solution) is 112 % of control and 118 % of control.

For the molecule `C=CC(CN1CC1)OC(C)=O` (stereo not drawn), the T/C reads like this: (dose: 0.95 mg/kg/injection, schedule: Q01DX Z (ip), vehicle: carboxymethylcellulose (CMC)) 100 % of control; (dose: 1.9 mg/kg/injection, schedule: Q01DX Z (ip), vehicle: carboxymethylcellulose (CMC)) 118 % of control; (dose: 3.8 mg/kg/injection, schedule: Q01DX Z (ip), vehicle: carboxymethylcellulose (CMC)) 118 % of control; (dose: 7.5 mg/kg/injection, schedule: Q01DX Z (ip), vehicle: carboxymethylcellulose (CMC)) 120 % of control.
